Results on six compounds are retold here after patent US20190223479A1, “SUGAR-DIPEPTIDE CONJUGATES AS FLAVOR MOLECULES” (NESTEC S.A., priority 2016, published 2019).

“Also recorded” adds a separate entry of the source.

Assay [1] in a line: Sensory evaluation by 12 panelists of chicken soup spiked with the compounds. Conditions: versus un-spiked reference soup; for Flavor property in chicken soup (2 g/l): compound added at 2 g/l. How it is done:
Sample preparation: Chicken soups were prepared by dissolving 6 g chicken base powder (detailed recipe shown in Table 1), 1 g monosodium glutamate and 1 g of sodium chloride in 500 mL hot water. The compounds were separately added at 2 g/l and 0.25 g/l.
Sensory protocol: The sensory evaluation was carried out by 12 panelists, previously screened for their sensory abilities. The panelists assessed a maximum of 6 samples per session. They had Vittel water and crackers as mouth cleansers. In all the cases, the panelists were instructed to evaluate the samples on the following attributes: overall flavor persistency, umami, meaty, grilled/popcorn, boiled chicken, sweet, bitter, salty. The samples were coded with random 3-digit numbers according to a balanced presentation design, heated at approximately 65° C. and then presented in 40 ml brown plastic containers and under red light to minimize appearance bias (the serving was approximately 25 ml per sample).

Assay [2] can be described thus: Sensory comparison by 6 panelists (nose-clips) of soup with sugar conjugate vs equimolar glucose and lysine. The note with it: 2 g/L (6.49 mmol/L) in soup base versus same molar concentrations of glucose and lysine. How it is done:
A first soup was prepared by adding 2 g/L (6.49 mmol/L) 1-deoxy-D-fructosyl-N-Lysine (GluAmadori-Lys2) in the soup base as described above. A second soup was prepared by adding same corresponding molar concentrations of glucose and lysine. The solutions were then evaluated by 6 panelists following the same procedure than described above with using nose-clips.

Assay [3] in a line: Tomato soup seasoning compositions with added compound. Conditions: 0.5 g/L or 2.5 g/L, versus reference soups without the compounds. Here is the method: Tomato soups can be prepared by dissolving 6 g tomato base powder as can be obtained in the commerce in 500 mL hot water. GluAmadori-Lys1 or GluAmadori-Lys2 can then be added at a concentration of 0.5 g/L or 2.5 g/L to the soups in order to improve their taste and flavor profile. […] For example, a similar tomato soup can now be prepared which has the same saltiness as the reference tomato soup but comprising less sodium chloride.

For assay [4] the following is noted: described by T. Sonntag et al.; cited from earlier work.

For the compound “1-deoxy-D-fructosyl-N-Lysine [GluAmadori-Lys2]”, in assay [1], the “Flavor property in chicken soup (2 g/l)” value was “enhanced saltiness, umaminess and overall flavor persistency”. Besides, the Sensory differences result in assay [2] was “more salty and umami”. Besides, the “Taste and flavor profile of tomato soup” value in assay [3] is “more pronounced umami taste as well as being perceived as more salty”.

`N[C@@H](CCCCNCC1(O)OCC(O)C1O)C(=O)O` (stereo partly drawn) [RibAmadori-Lys2, N6-((2,3,4-trihydroxytetrahydrofuran-2-yl)methyl)lysine]: the “Flavor property in chicken soup (2 g/l)” value in assay [1] is on record as “enhanced roasted flavor”.

`NCCCC[C@H](NCC1(O)OCC(O)C1O)C(=O)O` (stereo partly drawn) [XylAmadori-Lys1, ((2,3,4-trihydroxytetrahydrofuran-2-yl)methyl)lysine]: the “Flavor property in chicken soup (0.25 g/l)” value in assay [1] (compound added at 0.25 g/l) was “baked and roasted flavors were significantly increased”. The “Flavor property in chicken soup (2 g/l)” value in assay [1] is “baked and roasted flavors were significantly increased; also recorded: baked, roasted flavor”. For the compound `NCCCC[C@H](N)C(=O)O` [L-lysine], the Taste quality result in assay [4] is reported as “bitter tasting compound”.

As to `N[C@@H](CCCCNCC1(O)OCC(O)C1O)C(=O)O` (stereo partly drawn) [XylAmadori-Lys2, N6-((2,3,4-trihydroxytetrahydrofuran-2-yl)methyl)lysine], the “Flavor property in chicken soup (2 g/l)” value in assay [1] is “enhanced meat flavor”. On the same count and under the same terms, to `NCCCC[C@H](NCC1(O)OCC(O)C1O)C(=O)O` (stereo partly drawn) [RibAmadori-Lys1, ((2,3,4-trihydroxytetrahydrofuran-2-yl)methyl)lysine] belongs “baked and roasted flavors were significantly increased; also recorded: baked, roasted flavor”.
